Test results published in PubChem BioAssay AID2060333 (Molecular Pharmacology Branch, DTP, NCI, 2025).

Tested on: 845751-090-R-J2-PDC tumor spheroid viability
Experiment: Anticancer human tumor 845751-090-R-J2-PDC patient-derived head and neck squamous carcinoma cell line growth inhibition [IpAb]
Settings: spheroids with HUVEC and MSC; for IC50: curve of first compound; for viability, T/C: stronger effect = lower value
In short: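 Spheroids of 60% malignant cells, 25% HUVEC and 15% MSC were exposed to targeted agents combined with ipatasertib or abemaciclib. Doses started at or near clinical Cmax (10 microM when unknown) and fell in half-log steps.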

[1] = second compound 0.1 µM, first compound 0.0316 µM
[2] = second compound 0.1 µM, first compound 0.1 µM
[3] = second compound 0.316 µM, first compound 0.0316 µM
[4] = second compound 0.316 µM, first compound 0.1 µM
[5] = second compound 1 µM, first compound 0.0316 µM
[6] = second compound 1 µM, first compound 0.1 µM
[7] = second compound 3.16 µM, first compound 0.0316 µM
[8] = second compound 3.16 µM, first compound 0.1 µM
[9] = second compound 10 µM, first compound 0.0316 µM
[10] = second compound 10 µM, first compound 0.1 µM
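Further: spheroids exposed to compounds for 7 days before readout.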
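Wherever viability, T/C is given: CTG3D luminescence normalised so that 100% = DMSO vehicle control.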

## C=CC(=O)N1CCN(c2nc(=O)n(-c3c(C)ccnc3C(C)C)c3nc(-c4c(O)cccc4F)c(F)cc23)C(C)C1 (stereo not given) + CC(C)NCC(C(=O)N1CCN(c2ncnc3c2C(C)CC3O)CC1)c1ccc(Cl)cc1
Second compound 0.1 µM
  IC50: < 31.6 nM
Second compound 0.316 µM
  IC50: < 31.6 nM
Second compound 1 µM
  IC50: < 31.6 nM
Second compound 3.16 µM
  IC50: < 31.6 nM
Second compound 10 µM
  IC50: < 31.6 nM
[1]
  viability, T/C: 47.1%
[2]
  viability, T/C: 46.7%
Second compound 0.1 µM, first compound 0.316 µM
  viability, T/C: 28.9%
Second compound 0.1 µM, first compound 1 µM
  viability, T/C: 36.3%
Second compound 0.1 µM, first compound 3.16 µM
  viability, T/C: 22.1%
Second compound 0.1 µM, first compound 10 µM
  viability, T/C: 10.7%
[3]
  viability, T/C: 28.2%
[4]
  viability, T/C: 30.3%
Second compound 0.316 µM, first compound 0.316 µM
  viability, T/C: 21.2%
Second compound 0.316 µM, first compound 1 µM
  viability, T/C: 24.9%
Second compound 0.316 µM, first compound 3.16 µM
  viability, T/C: 21.9%
Second compound 0.316 µM, first compound 10 µM
  viability, T/C: 13.8%
[5]
  viability, T/C: 22.9%
[6]
  viability, T/C: 25%
Second compound 1 µM, first compound 0.316 µM
  viability, T/C: 21.5%
Second compound 1 µM, first compound 1 µM
  viability, T/C: 28.2%
Second compound 1 µM, first compound 3.16 µM
  viability, T/C: 19.3%
Second compound 1 µM, first compound 10 µM
  viability, T/C: 7.88%
[7]
  viability, T/C: 21.7%
[8]
  viability, T/C: 18.3%
Second compound 3.16 µM, first compound 0.316 µM
  viability, T/C: 22.9%
Second compound 3.16 µM, first compound 1 µM
  viability, T/C: 19.7%
Second compound 3.16 µM, first compound 3.16 µM
  viability, T/C: 11.9%
Second compound 3.16 µM, first compound 10 µM
  viability, T/C: 5.86%
[9]
  viability, T/C: 15.2%
[10]
  viability, T/C: 12.3%
Second compound 10 µM, first compound 0.316 µM
  viability, T/C: 12.2%
Second compound 10 µM, first compound 1 µM
  viability, T/C: 12.5%
Second compound 10 µM, first compound 3.16 µM
  viability, T/C: 8.32%
Second compound 10 µM, first compound 10 µM
  viability, T/C: 3.28%

## CC(C)(C)c1cnc(CSc2cnc(NC(=O)C3CCNCC3)s2)o1 + CC(C)NCC(C(=O)N1CCN(c2ncnc3c2C(C)CC3O)CC1)c1ccc(Cl)cc1
Second compound 0.1 µM
  IC50: 30.1 nM
Second compound 0.316 µM
  IC50: < 9.49 nM
Second compound 1 µM
  IC50: < 9.49 nM
Second compound 3.16 µM
  IC50: < 9.49 nM
Second compound 10 µM
  IC50: < 9.49 nM
Second compound 0.1 µM, first compound 0.00949 µM
  viability, T/C: 88.9%
Second compound 0.1 µM, first compound 0.03 µM
  viability, T/C: 50.1%
Second compound 0.1 µM, first compound 0.0949 µM
  viability, T/C: 7.88%
Second compound 0.1 µM, first compound 0.3 µM
  viability, T/C: 0.63%
Second compound 0.1 µM, first compound 0.949 µM
  viability, T/C: 0.78%
Second compound 0.1 µM, first compound 3 µM
  viability, T/C: 0.94%
Second compound 0.316 µM, first compound 0.00949 µM
  viability, T/C: 34.4%
Second compound 0.316 µM, first compound 0.03 µM
  viability, T/C: 40.4%
Second compound 0.316 µM, first compound 0.0949 µM
  viability, T/C: 9.45%
Second compound 0.316 µM, first compound 0.3 µM
  viability, T/C: 0.23%
Second compound 0.316 µM, first compound 0.949 µM
  viability, T/C: 0.27%
Second compound 0.316 µM, first compound 3 µM
  viability, T/C: 0.95%
Second compound 1 µM, first compound 0.00949 µM
  viability, T/C: 27%
Second compound 1 µM, first compound 0.03 µM
  viability, T/C: 28.8%
Second compound 1 µM, first compound 0.0949 µM
  viability, T/C: 10.8%
Second compound 1 µM, first compound 0.3 µM
  viability, T/C: 0.59%
Second compound 1 µM, first compound 0.949 µM
  viability, T/C: 0.34%
Second compound 1 µM, first compound 3 µM
  viability, T/C: 0.55%
Second compound 3.16 µM, first compound 0.00949 µM
  viability, T/C: 27.4%
Second compound 3.16 µM, first compound 0.03 µM
  viability, T/C: 27.7%
Second compound 3.16 µM, first compound 0.0949 µM
  viability, T/C: 9.06%
Second compound 3.16 µM, first compound 0.3 µM
  viability, T/C: 0.29%
Second compound 3.16 µM, first compound 0.949 µM
  viability, T/C: 0.31%
Second compound 3.16 µM, first compound 3 µM
  viability, T/C: 0.87%
Second compound 10 µM, first compound 0.00949 µM
  viability, T/C: 14.1%
Second compound 10 µM, first compound 0.03 µM
  viability, T/C: 12.7%
Second compound 10 µM, first compound 0.0949 µM
  viability, T/C: 3.48%
Second compound 10 µM, first compound 0.3 µM
  viability, T/C: 1.09%
Second compound 10 µM, first compound 0.949 µM
  viability, T/C: 0.27%
Second compound 10 µM, first compound 3 µM
  viability, T/C: 1.61%

## Cn1ncnc1[C@H]1c2n[nH]c(=O)c3cc(F)cc(c23)N[C@@H]1c1ccc(F)cc1 + CC(C)NCC(C(=O)N1CCN(c2ncnc3c2C(C)CC3O)CC1)c1ccc(Cl)cc1
Second compound 0.1 µM
  IC50: 25.8 nM
Second compound 0.316 µM
  IC50: < 0.316 nM
Second compound 1 µM
  IC50: < 0.316 nM
Second compound 3.16 µM
  IC50: < 0.316 nM
Second compound 10 µM
  IC50: < 0.316 nM
Second compound 0.1 µM, first compound 0.000316 µM
  viability, T/C: 53.9%
Second compound 0.1 µM, first compound 0.001 µM
  viability, T/C: 88.8%
Second compound 0.1 µM, first compound 0.00316 µM
  viability, T/C: 57%
Second compound 0.1 µM, first compound 0.01 µM
  viability, T/C: 49.1%
[1]
  viability, T/C: 54.1%
[2]
  viability, T/C: 33.6%
Second compound 0.316 µM, first compound 0.000316 µM
  viability, T/C: 38.1%
Second compound 0.316 µM, first compound 0.001 µM
  viability, T/C: 25%
Second compound 0.316 µM, first compound 0.00316 µM
  viability, T/C: 34.4%
Second compound 0.316 µM, first compound 0.01 µM
  viability, T/C: 29.6%
[3]
  viability, T/C: 26.1%
[4]
  viability, T/C: 22.3%
Second compound 1 µM, first compound 0.000316 µM
  viability, T/C: 30.1%
Second compound 1 µM, first compound 0.001 µM
  viability, T/C: 27.1%
Second compound 1 µM, first compound 0.00316 µM
  viability, T/C: 23.8%
Second compound 1 µM, first compound 0.01 µM
  viability, T/C: 28.5%
[5]
  viability, T/C: 22.9%
[6]
  viability, T/C: 20%
Second compound 3.16 µM, first compound 0.000316 µM
  viability, T/C: 29.6%
Second compound 3.16 µM, first compound 0.001 µM
  viability, T/C: 22.4%
Second compound 3.16 µM, first compound 0.00316 µM
  viability, T/C: 20.2%
Second compound 3.16 µM, first compound 0.01 µM
  viability, T/C: 24.8%
[7]
  viability, T/C: 14.7%
[8]
  viability, T/C: 14.8%
Second compound 10 µM, first compound 0.000316 µM
  viability, T/C: 14.8%
Second compound 10 µM, first compound 0.001 µM
  viability, T/C: 16.9%
Second compound 10 µM, first compound 0.00316 µM
  viability, T/C: 12.3%
Second compound 10 µM, first compound 0.01 µM
  viability, T/C: 10.7%
[9]
  viability, T/C: 11.6%
[10]
  viability, T/C: 9.65%
